± gives the expanded uncertainty stated by the source.
Test: activity coefficient (dimensionless); of the first substance listed, at infinite dilution; xn = mol fraction of the nth substance listed
Conditions: 101.33 kPa, Liquid, Chromatography, x1 = 0

Structure (SMILES) | activity coefficient (318.15 K) | activity coefficient (328.15 K) | activity coefficient (338.15 K) | activity coefficient (348.15 K) | activity coefficient (358.15 K)
CCCC(=O)CC [3-hexanone] + CC[N+](C)(CC)CCOC.O=S(=O)([N-]S(=O)(=O)C(F)(F)F)C(F)(F)F | 1.21 ± 0.1 | 1.22 ± 0.1 | 1.23 ± 0.1 | 1.24 ± 0.1 | 1.25 ± 0.1
CCC(C)CC [3-methylpentane] + CC[N+](C)(CC)CCOC.O=S(=O)([N-]S(=O)(=O)C(F)(F)F)C(F)(F)F | 16.1 ± 1.4 | 14.9 ± 1.3 | 14 ± 1.2 | 13.1 ± 1.1 | 12.5 ± 1.1
CC(C)=O [acetone] + CC[N+](C)(CC)CCOC.O=S(=O)([N-]S(=O)(=O)C(F)(F)F)C(F)(F)F | 0.484 ± 0.045 | 0.491 ± 0.046 | 0.499 ± 0.046 | 0.509 ± 0.047 | 0.518 ± 0.047
CC#N [acetonitrile] + CC[N+](C)(CC)CCOC.O=S(=O)([N-]S(=O)(=O)C(F)(F)F)C(F)(F)F | 0.488 ± 0.045 | 0.488 ± 0.045 | 0.488 ± 0.045 | 0.49 ± 0.045 | 0.49 ± 0.045
c1ccccc1 [benzene] + CC[N+](C)(CC)CCOC.O=S(=O)([N-]S(=O)(=O)C(F)(F)F)C(F)(F)F | 1.03 ± 0.08 | 1.04 ± 0.09 | 1.05 ± 0.09 | 1.07 ± 0.09 | 1.07 ± 0.09
CCCCO [butan-1-ol] + CC[N+](C)(CC)CCOC.O=S(=O)([N-]S(=O)(=O)C(F)(F)F)C(F)(F)F | 2.96 ± 0.26 | 2.63 ± 0.23 | 2.39 ± 0.21 | 2.18 ± 0.19 | 2 ± 0.17
C1CCCCCC1 [cycloheptane] + CC[N+](C)(CC)CCOC.O=S(=O)([N-]S(=O)(=O)C(F)(F)F)C(F)(F)F | 14.9 ± 1.3 | 13.7 ± 1.2 | 12.7 ± 1.1 | 11.8 ± 1 | 11 ± 1
C1CCCCC1 [cyclohexane] + CC[N+](C)(CC)CCOC.O=S(=O)([N-]S(=O)(=O)C(F)(F)F)C(F)(F)F | 10.8 ± 0.9 | 10 ± 0.9 | 9.39 ± 0.81 | 8.74 ± 0.75 | 8.3 ± 0.72
C1=CCCCC1 [cyclohexene] + CC[N+](C)(CC)CCOC.O=S(=O)([N-]S(=O)(=O)C(F)(F)F)C(F)(F)F | 5.83 ± 0.5 | 5.56 ± 0.48 | 5.33 ± 0.46 | 5.16 ± 0.45 | 4.93 ± 0.43
C1CCCCCCC1 [cyclooctane] + CC[N+](C)(CC)CCOC.O=S(=O)([N-]S(=O)(=O)C(F)(F)F)C(F)(F)F | 20.4 ± 1.8 | 18.6 ± 1.6 | 17 ± 1.5 | 15.7 ± 1.4 | 14.5 ± 1.3
C1CCCC1 [cyclopentane] + CC[N+](C)(CC)CCOC.O=S(=O)([N-]S(=O)(=O)C(F)(F)F)C(F)(F)F | 7.28 ± 0.63 | 6.85 ± 0.59 | 6.47 ± 0.56 | 6.12 ± 0.53 | 5.79 ± 0.5
CCCCCCCCCC [decane] + CC[N+](C)(CC)CCOC.O=S(=O)([N-]S(=O)(=O)C(F)(F)F)C(F)(F)F | 82 ± 7.1 | 72.7 ± 6.3 | 65.4 ± 5.7 | 58.1 ± 5 | 52.6 ± 4.6
CCOCC [diethyl ether] + CC[N+](C)(CC)CCOC.O=S(=O)([N-]S(=O)(=O)C(F)(F)F)C(F)(F)F | 2.62 ± 0.23 | 2.6 ± 0.22 | 2.6 ± 0.22 | 2.59 ± 0.22 | 2.57 ± 0.22
CC(C)OC(C)C [diisopropyl ether] + CC[N+](C)(CC)CCOC.O=S(=O)([N-]S(=O)(=O)C(F)(F)F)C(F)(F)F | 6.4 ± 0.55 | 6.28 ± 0.54 | 6.16 ± 0.53 | 6.03 ± 0.52 | 5.88 ± 0.51
CCCOCCC [dipropyl ether] + CC[N+](C)(CC)CCOC.O=S(=O)([N-]S(=O)(=O)C(F)(F)F)C(F)(F)F | 6.84 ± 0.59 | 6.58 ± 0.57 | 6.41 ± 0.55 | 6.25 ± 0.54 | 6.07 ± 0.52
CCO [ethanol] + CC[N+](C)(CC)CCOC.O=S(=O)([N-]S(=O)(=O)C(F)(F)F)C(F)(F)F | 1.77 ± 0.15 | 1.62 ± 0.14 | 1.5 ± 0.13 | 1.38 ± 0.12 | 1.28 ± 0.11
CCc1ccccc1 [ethylbenzene] + CC[N+](C)(CC)CCOC.O=S(=O)([N-]S(=O)(=O)C(F)(F)F)C(F)(F)F | 2.24 ± 0.19 | 2.25 ± 0.19 | 2.26 ± 0.19 | 2.28 ± 0.2 | 2.29 ± 0.2
CCCCCCC [heptane] + CC[N+](C)(CC)CCOC.O=S(=O)([N-]S(=O)(=O)C(F)(F)F)C(F)(F)F | 26.4 ± 2.3 | 24.4 ± 2.1 | 22.3 ± 1.9 | 21 ± 1.8 | 19.3 ± 1.7

— the NIST ThermoML archive (doi:10.1016/j.jct.2016.07.017)
